Experimental data published in the NIST ThermoML archive (doi:10.1021/je800224k).
Numbers after ± are expanded uncertainties.

Conditions: Liquid

CCn1cc[n+](C)c1.F[B-](F)(F)F [1-ethyl-3-methylimidazolium tetrafluoroborate]
mass density (293.15 K, 101.33 kPa, Vibrating tube method): 1284.4 ± 4.8 kg/m3
mass density (313.15 K, 101.33 kPa, Vibrating tube method): 1269.1 ± 4.7 kg/m3
mass density (313.2 K, 10000 kPa, Bellows volumetry): 1274 ± 5 kg/m3
mass density (313.2 K, 20000 kPa, Bellows volumetry): 1278 ± 5 kg/m3
mass density (313.2 K, 30000 kPa, Bellows volumetry): 1282 ± 5 kg/m3
mass density (313.2 K, 40000 kPa, Bellows volumetry): 1287 ± 5 kg/m3
mass density (313.2 K, 50000 kPa, Bellows volumetry): 1291 ± 5 kg/m3
mass density (313.2 K, 60000 kPa, Bellows volumetry): 1295 ± 5 kg/m3
mass density (313.2 K, 70000 kPa, Bellows volumetry): 1299 ± 5 kg/m3
mass density (313.2 K, 80000 kPa, Bellows volumetry): 1302 ± 5 kg/m3
mass density (313.2 K, 90000 kPa, Bellows volumetry): 1306 ± 5 kg/m3
mass density (313.2 K, 100000 kPa, Bellows volumetry): 1310 ± 5 kg/m3
mass density (313.2 K, 110000 kPa, Bellows volumetry): 1313 ± 5 kg/m3
mass density (313.2 K, 120000 kPa, Bellows volumetry): 1317 ± 5 kg/m3
mass density (313.2 K, 130000 kPa, Bellows volumetry): 1320 ± 5 kg/m3
mass density (313.2 K, 140000 kPa, Bellows volumetry): 1323 ± 5 kg/m3
mass density (313.2 K, 150000 kPa, Bellows volumetry): 1327 ± 5 kg/m3
mass density (313.2 K, 160000 kPa, Bellows volumetry): 1330 ± 5 kg/m3
mass density (313.2 K, 170000 kPa, Bellows volumetry): 1333 ± 5 kg/m3
mass density (313.2 K, 180000 kPa, Bellows volumetry): 1336 ± 5 kg/m3
mass density (313.2 K, 190000 kPa, Bellows volumetry): 1339 ± 5 kg/m3
mass density (313.2 K, 200000 kPa, Bellows volumetry): 1342 ± 5 kg/m3
mass density (332.6 K, 10000 kPa, Bellows volumetry): 1259 ± 5 kg/m3
mass density (332.6 K, 20000 kPa, Bellows volumetry): 1264 ± 5 kg/m3
mass density (332.6 K, 30000 kPa, Bellows volumetry): 1268 ± 5 kg/m3
mass density (332.6 K, 40000 kPa, Bellows volumetry): 1273 ± 5 kg/m3
mass density (332.6 K, 50000 kPa, Bellows volumetry): 1277 ± 5 kg/m3
mass density (332.6 K, 60000 kPa, Bellows volumetry): 1281 ± 5 kg/m3
mass density (332.6 K, 70000 kPa, Bellows volumetry): 1285 ± 5 kg/m3
mass density (332.6 K, 80000 kPa, Bellows volumetry): 1289 ± 5 kg/m3
mass density (332.6 K, 90000 kPa, Bellows volumetry): 1293 ± 5 kg/m3
mass density (332.6 K, 100000 kPa, Bellows volumetry): 1297 ± 5 kg/m3
mass density (332.6 K, 110000 kPa, Bellows volumetry): 1300 ± 5 kg/m3
mass density (332.6 K, 120000 kPa, Bellows volumetry): 1304 ± 5 kg/m3
mass density (332.6 K, 130000 kPa, Bellows volumetry): 1307 ± 5 kg/m3
mass density (332.6 K, 140000 kPa, Bellows volumetry): 1311 ± 5 kg/m3
mass density (332.6 K, 150000 kPa, Bellows volumetry): 1314 ± 5 kg/m3
mass density (332.6 K, 160000 kPa, Bellows volumetry): 1317 ± 5 kg/m3
mass density (332.6 K, 170000 kPa, Bellows volumetry): 1321 ± 5 kg/m3
mass density (332.6 K, 180000 kPa, Bellows volumetry): 1324 ± 5 kg/m3
mass density (332.6 K, 190000 kPa, Bellows volumetry): 1327 ± 5 kg/m3
mass density (332.6 K, 200000 kPa, Bellows volumetry): 1330 ± 5 kg/m3
mass density (333.15 K, 101.33 kPa, Vibrating tube method): 1254 ± 4.6 kg/m3
mass density (352.7 K, 10000 kPa, Bellows volumetry): 1244 ± 5 kg/m3
mass density (352.7 K, 20000 kPa, Bellows volumetry): 1249 ± 5 kg/m3
mass density (352.7 K, 30000 kPa, Bellows volumetry): 1254 ± 5 kg/m3
mass density (352.7 K, 40000 kPa, Bellows volumetry): 1259 ± 5 kg/m3
mass density (352.7 K, 50000 kPa, Bellows volumetry): 1263 ± 5 kg/m3
mass density (352.7 K, 60000 kPa, Bellows volumetry): 1267 ± 5 kg/m3
mass density (352.7 K, 70000 kPa, Bellows volumetry): 1272 ± 5 kg/m3
mass density (352.7 K, 80000 kPa, Bellows volumetry): 1276 ± 5 kg/m3
mass density (352.7 K, 90000 kPa, Bellows volumetry): 1280 ± 5 kg/m3
mass density (352.7 K, 100000 kPa, Bellows volumetry): 1284 ± 5 kg/m3
mass density (352.7 K, 110000 kPa, Bellows volumetry): 1287 ± 5 kg/m3
mass density (352.7 K, 120000 kPa, Bellows volumetry): 1291 ± 5 kg/m3
mass density (352.7 K, 130000 kPa, Bellows volumetry): 1295 ± 5 kg/m3
mass density (352.7 K, 140000 kPa, Bellows volumetry): 1298 ± 5 kg/m3
mass density (352.7 K, 150000 kPa, Bellows volumetry): 1302 ± 5 kg/m3
mass density (352.7 K, 160000 kPa, Bellows volumetry): 1305 ± 5 kg/m3
mass density (352.7 K, 170000 kPa, Bellows volumetry): 1309 ± 5 kg/m3
mass density (352.7 K, 180000 kPa, Bellows volumetry): 1312 ± 5 kg/m3
mass density (352.7 K, 190000 kPa, Bellows volumetry): 1315 ± 5 kg/m3
mass density (352.7 K, 200000 kPa, Bellows volumetry): 1318 ± 5 kg/m3
mass density (353.15 K, 101.33 kPa, Vibrating tube method): 1239.3 ± 4.5 kg/m3
mass density (372.8 K, 10000 kPa, Bellows volumetry): 1230 ± 4 kg/m3
mass density (372.8 K, 20000 kPa, Bellows volumetry): 1235 ± 4 kg/m3
mass density (372.8 K, 30000 kPa, Bellows volumetry): 1240 ± 4 kg/m3
mass density (372.8 K, 40000 kPa, Bellows volumetry): 1245 ± 5 kg/m3
mass density (372.8 K, 50000 kPa, Bellows volumetry): 1250 ± 5 kg/m3
mass density (372.8 K, 60000 kPa, Bellows volumetry): 1254 ± 5 kg/m3
mass density (372.8 K, 70000 kPa, Bellows volumetry): 1258 ± 5 kg/m3
mass density (372.8 K, 80000 kPa, Bellows volumetry): 1263 ± 5 kg/m3
mass density (372.8 K, 90000 kPa, Bellows volumetry): 1267 ± 5 kg/m3
mass density (372.8 K, 100000 kPa, Bellows volumetry): 1271 ± 5 kg/m3
mass density (372.8 K, 110000 kPa, Bellows volumetry): 1275 ± 5 kg/m3
mass density (372.8 K, 120000 kPa, Bellows volumetry): 1279 ± 5 kg/m3
mass density (372.8 K, 130000 kPa, Bellows volumetry): 1282 ± 5 kg/m3
mass density (372.8 K, 140000 kPa, Bellows volumetry): 1286 ± 5 kg/m3
mass density (372.8 K, 150000 kPa, Bellows volumetry): 1290 ± 5 kg/m3
mass density (372.8 K, 160000 kPa, Bellows volumetry): 1293 ± 5 kg/m3
mass density (372.8 K, 170000 kPa, Bellows volumetry): 1297 ± 5 kg/m3
mass density (372.8 K, 180000 kPa, Bellows volumetry): 1300 ± 5 kg/m3
mass density (372.8 K, 190000 kPa, Bellows volumetry): 1303 ± 5 kg/m3
mass density (372.8 K, 200000 kPa, Bellows volumetry): 1307 ± 5 kg/m3
mass density (392.9 K, 10000 kPa, Bellows volumetry): 1216 ± 4 kg/m3
mass density (392.9 K, 20000 kPa, Bellows volumetry): 1221 ± 4 kg/m3
mass density (392.9 K, 30000 kPa, Bellows volumetry): 1227 ± 4 kg/m3
mass density (392.9 K, 40000 kPa, Bellows volumetry): 1232 ± 4 kg/m3
mass density (392.9 K, 50000 kPa, Bellows volumetry): 1237 ± 4 kg/m3
mass density (392.9 K, 60000 kPa, Bellows volumetry): 1241 ± 4 kg/m3
mass density (392.9 K, 70000 kPa, Bellows volumetry): 1246 ± 5 kg/m3
mass density (392.9 K, 80000 kPa, Bellows volumetry): 1250 ± 5 kg/m3
